Measured values as given in patent US20250179073A1, “TRICYCLIC HETEROCYCLE COMPOUNDS AS IAP ANTAGONISTS” (Ascentage Pharma (Suzhou) Co., Ltd., priority 2022, published 2025).

Assays:
MDA-MB-231 cells = test: Cell proliferation assay (CellTiter-Glo), MDA-MB-231; assay type: cell-based; settings: Homo sapiens, MDA-MB-231, 72 h, 72 h treatment, Celltiter-Glo luminescence
How it was run: (§1)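 Compounds tested over ten concentrations ([…]) for 72 h on EVSA-T cells in MEM/10% FBS and MDA-MB-231 cells in RPMI-1640/10% FBS, seeded at 10000/well. Luminescent CellTiter-Glo readout; IC50 fitted after normalisation to controls.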

EVSA-T cells = test: Cell proliferation assay (CellTiter-Glo), EVSA-T; assay type: cell-based; settings: Homo sapiens, EVSA-T, 72 h, 72 h treatment, Celltiter-Glo luminescence
How it was run: as §1

Row | SMILES | IC50 (MDA-MB-231 cells) [µM] | IC50 (EVSA-T cells) [µM]
1 | C[C@@H]1CN(CC(=O)N2CC(C)(C)c3c2cc(Cc2ccc(F)cc2)c2cncn32)[C@@H](CN2CCOC[C@H]2C)CN1 [Compound 1, 1-(4-(4-fluorobenzyl)-8,8-dimethyl-7,8-dihydro-6H-imidazo[1,5-a]pyrrolo[2,3-e]pyridin-6-yl)-2-((2R,5R)-5-methyl-2-(((R)-3-methylmorpholino)methyl)piperazin-1-yl)ethan-1-one] | 0.077 | 0.007
2 | C[C@@H]1CN(CC(=O)N2CC(C)(C)c3c2cc(Cc2ccc(F)cc2)c2nn(CC(F)(F)CO)c(=O)n32)[C@@H](CN2CCOC[C@H]2C)CN1 [Compound 242, 2-(2,2-difluoro-3-hydroxypropyl)-4-(4-fluorobenzyl)-8,8-dimethyl-6-(2-((2R,5R)-5-methyl-2-(((R)-3-methylmorpholino)methyl)piperazin-1-yl)acetyl)-2,6,7,8-tetrahydro-1H-pyrrolo[2,3-e][1,2,4]triazolo[4,3-a]pyridin-1-one] | 0.018 | 0.0027
3 | C[C@@H]1CN(CC(=O)N2CC(C)(C)c3c2cc(Cc2ccc(F)cc2)c2nn(Cc4ccccn4)c(=O)n32)[C@@H](CN2CCOC[C@H]2C)CN1 [Compound 192, 4-(4-fluorobenzyl)-8,8-dimethyl-6-(2-((2R,5R)-5-methyl-2-(((R)-3-methylmorpholino)methyl)piperazin-1-yl)acetyl)-2-(pyridin-2-ylmethyl)-2,6,7,8-tetrahydro-1H-pyrrolo[2,3-e][1,2,4]triazolo[4,3-a]pyridin-1-one] | 0.038 | 0.007
4 | C[C@@H]1CN(CC(=O)N2CC(C)(C)c3c2cc(Cc2ccc(F)cc2)c2nc(C(=O)N(C)C)nn32)[C@@H](CN2CCOC[C@H]2C)CN1 [Compound 251, 4-(4-fluorobenzyl)-N,N,8,8-tetramethyl-6-(2-((2R,5R)-5-methyl-2-(((R)-3-methylmorpholino)methyl)piperazin-1-yl)acetyl)-7,8-dihydro-6H-pyrrolo[2,3-e][1,2,4]triazolo[1,5-a]pyridine-2-carboxamide] | 0.13 | 0.0296
5 | C[C@@H]1CN(CC(=O)N2CC(C)(C)c3c2cc(Cc2ccc(F)cc2)c2ncnn32)[C@@H](CN2Cc3cccc(F)c3C2=O)CN1 [Compound 207, 7-fluoro-2-(((2R,5R)-1-(2-(4-(4-fluorobenzyl)-8,8-dimethyl-7,8-dihydro-6H-pyrrolo[2,3-e][1,2,4]triazolo[1,5-a]pyridin-6-yl)-2-oxoethyl)-5-methylpiperazin-2-yl)methyl)isoindolin-1-one] | 0.02 | 0.002
6 | C[C@@H]1CN(CC(=O)N2CC(C)(C)c3c2cc(Cc2ccc(F)cc2)c2nc(C4(O)CC4)nn32)[C@@H](CN2CCOC[C@H]2C)CN1 [Compound 244, 1-(4-(4-fluorobenzyl)-2-(1-hydroxycyclopropyl)-8,8-dimethyl-7,8-dihydro-6H-pyrrolo[2,3-e][1,2,4]triazolo[1,5-a]pyridin-6-yl)-2-((2R,5R)-5-methyl-2-(((R)-3-methylmorpholino)methyl)piperazin-1-yl)ethan-1-one] | 0.003 | 0.0046
7 | C[C@@H]1CN(CC(=O)N2CC(C)(C)c3c2cc(Cc2ccc(F)cc2)c2nc(C(F)F)nn32)[C@@H](CN2CCOC[C@H]2C)CN1 [Compound 142, 1-(2-(difluoromethyl)-4-(4-fluorobenzyl)-8,8-dimethyl-7,8-dihydro-6H-pyrrolo[2,3-e][1,2,4]triazolo[1,5-a]pyridin-6-yl)-2-((2R,5R)-5-methyl-2-(((R)-3-methylmorpholino)methyl)piperazin-1-yl)ethan-1-one] | 0.05 | 0.002

Further molecules by falling IC50 (MDA-MB-231 cells), results first:

Row | IC50 (MDA-MB-231 cells) [µM] | SMILES | IC50 (EVSA-T cells) [µM]
8 | 0.17 | CC(C)c1nnc2c(Cc3ccc(F)cc3)cc3c(n12)C(C)(C)CN3C(=O)CN1C[C@@H](C)NC[C@@H]1CN1CCOC[C@H]1C [Example 11, 1-(4-(4-fluorobenzyl)-1-isopropyl-8,8-dimethyl-7,8-dihydro-6H-pyrrolo[2,3-e][1,2,4]triazolo[4,3-a]pyridin-6-yl)-2-((2R,5R)-5-methyl-2-(((R)-3-methylmorpholino)methyl)piperazin-1-yl)ethan-1-one] | 0.01
9 | 0.093 | C[C@@H]1CN(CC(=O)N2CC(C)(C)c3c2cc(Cc2ccc(F)cc2)c2nc(C(F)(F)F)cn32)[C@@H](CN2CCOC[C@H]2C)CN1 [Compound 116, 1-(4-(4-fluorobenzyl)-8,8-dimethyl-2-(trifluoromethyl)-7,8-dihydro-6H-imidazo[1,2-a]pyrrolo[2,3-e]pyridin-6-yl)-2-((2R,5R)-5-methyl-2-(((R)-3-methylmorpholino)methyl)piperazin-1-yl)ethan-1-one] | 0.019
10 | 0.078 | COc1cc(F)ccc1Cc1cc2c(n3ncnc13)C(C)(C)CN2C(=O)CN1C[C@@H](C)NC[C@@H]1CN1CCOC[C@H]1C [Compound 41, 1-(4-(4-fluoro-2-methoxybenzyl)-8,8-dimethyl-7,8-dihydro-6H-pyrrolo[2,3-e][1,2,4]triazolo[1,5-a]pyridin-6-yl)-2-((2R,5R)-5-methyl-2-(((R)-3-methylmorpholino)methyl)piperazin-1-yl)ethan-1-one] | 0.014
11 | 0.036 | Cc1nc2c(Cc3ccc(F)cc3)cc3c(n2n1)C(C)(C)CN3C(=O)CN1C[C@@H](C)NC[C@@H]1CN1CCOC[C@H]1C [Compound 36, 1-(4-(4-fluorobenzyl)-2,8,8-trimethyl-7,8-dihydro-6H-pyrrolo[2,3-e][1,2,4]triazolo[1,5-a]pyridin-6-yl)-2-((2R,5R)-5-methyl-2-(((R)-3-methylmorpholino)methyl)piperazin-1-yl)ethan-1-one] | 0.002
12 | 0.027 | C[C@@H]1CN(CC(=O)N2CC(C)(C)c3c2cc(Cc2ccc(F)cc2)c2nn(CC(F)(F)F)c(=O)n32)[C@@H](CN2CCOC[C@H]2C)CN1 [Compound 263, 4-(4-fluorobenzyl)-8,8-dimethyl-6-(2-((2R,5R)-5-methyl-2-(((R)-3-methylmorpholino)methyl)piperazin-1-yl)acetyl)-2-(2,2,2-trifluoroethyl)-2,6,7,8-tetrahydro-1H-pyrrolo[2,3-e][1,2,4]triazolo[4,3-a]pyridin-1-one] | 0.0082
13 | 0.016 | C[C@@H]1CN(CC(=O)N2CC(C)(C)c3c2cc(Cc2ccc(F)cc2)c2nn(CC(C)(C)O)c(=O)n32)[C@@H](CN2CCN(CC(F)(F)F)C[C@H]2C)CN1 [Compound 266, 4-(4-fluorobenzyl)-2-(2-hydroxy-2-methylpropyl)-8,8-dim ethyl-6-(2-((2R,5R)-5-methyl-2-(((R)-2-methyl-4-(2,2,2-trifluoroethyl)piperazin-1-yl)methyl)piperazin-1-yl)acetyl)-2,6,7,8-tetrahydro-1H-pyrrolo[2,3-e][1,2,4]triazolo[4,3-a]pyridin-1-one] | 0.0049
